# Experimental data: ChEMBL document CHEMBL4808171, “Structure-Activity Relationship Study and Biological Evaluation of 2-(Disubstituted phenyl)-indole-5-propanoic Acid Derivatives as GPR40 Full Agonists” (J Med Chem, 2021)
# Activity calls are given as the source filed them. No cut-off for these calls is given here.
# How the values were obtained:
# [1] = biological target: Free fatty acid receptor 1 (Mus musculus) (UniProt Q76JU9); experiment: Agonist activity at GPR40 in mouse MIN6 cells assessed as fold increase in 3 mM glucose-mediated insulin secretion at 10 uM incubated for 2 hrs by ELISA relative to control; type: functional, cell-based
# Free fatty acid receptor 1 (Mus musculus), sequence (Q76JU9 whole entry): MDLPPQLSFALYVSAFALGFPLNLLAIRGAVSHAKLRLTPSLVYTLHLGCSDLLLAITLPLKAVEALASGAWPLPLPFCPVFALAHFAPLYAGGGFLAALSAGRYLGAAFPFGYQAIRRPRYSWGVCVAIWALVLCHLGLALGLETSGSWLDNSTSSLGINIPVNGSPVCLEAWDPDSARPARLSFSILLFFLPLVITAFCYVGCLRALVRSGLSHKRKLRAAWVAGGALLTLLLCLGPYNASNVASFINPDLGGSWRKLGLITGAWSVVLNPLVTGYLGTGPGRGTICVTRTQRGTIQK
# [2] = MRTlast in CD-1 mouse at 30 mg/kg, po measured up to 8 hrs by LC-MS/MS analysis; type: ADME, organism-based; conditions: in vivo
# [3] = AUC (0 to t) in CD-1 mouse at 10 mg/kg, po measured up to 8 hrs by LC-MS/MS analysis; type: ADME, organism-based; design: route oral, dose 10 mg/kg, time <=8; conditions: in vivo
# [4] = biological target: T1, Free fatty acid receptor 1 (Homo sapiens, UniProt O14842); experiment: Agonist activity at GPR40 (unknown origin) expressed in CHO cells co-expressing luc2P/SRE (Gq) assessed as firefly luciferase activity at 10 uM incubated for 24 hrs by Bright-Glo based serum response element (SRE) luciferase reporter assay; type: functional, cell-based; conditions: filed as positive allosteric modulator
# T1 sequence (O14842 whole entry): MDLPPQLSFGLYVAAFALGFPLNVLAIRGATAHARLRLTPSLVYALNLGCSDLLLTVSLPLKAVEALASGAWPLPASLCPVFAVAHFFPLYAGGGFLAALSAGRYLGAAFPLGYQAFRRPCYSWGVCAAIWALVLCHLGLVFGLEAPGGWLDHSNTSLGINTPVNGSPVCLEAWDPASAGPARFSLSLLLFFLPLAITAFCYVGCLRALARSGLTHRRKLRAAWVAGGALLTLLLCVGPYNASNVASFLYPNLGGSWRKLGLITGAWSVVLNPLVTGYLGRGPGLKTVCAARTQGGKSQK
# [5] = AUC (0 to t) in CD-1 mouse at 90 mg/kg, po measured up to 8 hrs by LC-MS/MS analysis; type: ADME, organism-based; design: route oral, dose 90 mg/kg, time <=8; conditions: in vivo
# [6] = Clast in CD-1 mouse at 90 mg/kg, po measured up to 8 hrs by LC-MS/MS analysis; type: ADME, organism-based; conditions: in vivo, read-out: Clast
# [7] = Clast in CD-1 mouse at 10 mg/kg, po measured up to 8 hrs by LC-MS/MS analysis; type: ADME, organism-based; conditions: in vivo, read-out: Clast
# [8] = Cmax in CD-1 mouse at 30 mg/kg, po measured up to 8 hrs by LC-MS/MS analysis; type: ADME, organism-based; design: route oral, dose 30 mg/kg, time <=8; conditions: in vivo
# [9] = Half life in CD-1 mouse at 10 mg/kg, po measured up to 8 hrs by LC-MS/MS analysis; type: ADME, organism-based; conditions: in vivo
# [10] = Metabolic stability in mouse liver microsomes assessed as intrinsic clearance; type: ADME, Microsome; conditions: read-out: CLH
# [11] = AUC (0 to t) in CD-1 mouse at 30 mg/kg, po measured up to 8 hrs by LC-MS/MS analysis; type: ADME, organism-based; design: route oral, dose 30 mg/kg, time <=8; conditions: in vivo
# [12] = tested on: STC1; experiment: Induction of GLP-1 secretion in […] STC1 cells at 30 uM after 1 hrs by ELISA; type: functional, cell-based
# [13] = MRTlast in CD-1 mouse at 90 mg/kg, po measured up to 8 hrs by LC-MS/MS analysis; type: ADME, organism-based; conditions: in vivo
# [14] = Solubility of the compound in FaSSIF at 27 degC measured after 24 hrs; type: physicochemical; conditions: simulated gi fluid
# [15] = tested on: MIN6; experiment: Cytotoxicity in mouse MIN6 cells assessed as caspase 3/7 activity at 100 uM incubated for 72 hrs by fluorescence assay; type: cell-based; conditions: min6, 72 h
# [16] = Tlast in CD-1 mouse at 10 mg/kg, po measured up to 8 hrs by LC-MS/MS analysis; type: ADME, organism-based; conditions: in vivo
# [17] = Tmax in CD-1 mouse at 10 mg/kg, po measured up to 8 hrs by LC-MS/MS analysis; type: ADME, organism-based; conditions: in vivo
# [18] = tested on: Mus musculus; experiment: Antidiabetic activity in C57BL/6J mouse assessed as reduction in plasma glucose level at 30 mg/kg, po pretreated 1 hr before glucose challenge measured up to 120 mins by Oral glucose tolerance test; type: functional; design: scale not given: the % may be the effect or the level left; conditions: 2 h
# [19] = Cmax in CD-1 mouse at 10 mg/kg, po measured up to 8 hrs by LC-MS/MS analysis; type: ADME, organism-based; design: route oral, dose 10 mg/kg, time <=8; conditions: in vivo
# [20] = biological target: T2, Free fatty acid receptor 4 (Homo sapiens, UniProt Q5NUL3); experiment: Agonist activity at FFAR4 (unknown origin); type: functional
# T2 sequence (Q5NUL3 whole entry): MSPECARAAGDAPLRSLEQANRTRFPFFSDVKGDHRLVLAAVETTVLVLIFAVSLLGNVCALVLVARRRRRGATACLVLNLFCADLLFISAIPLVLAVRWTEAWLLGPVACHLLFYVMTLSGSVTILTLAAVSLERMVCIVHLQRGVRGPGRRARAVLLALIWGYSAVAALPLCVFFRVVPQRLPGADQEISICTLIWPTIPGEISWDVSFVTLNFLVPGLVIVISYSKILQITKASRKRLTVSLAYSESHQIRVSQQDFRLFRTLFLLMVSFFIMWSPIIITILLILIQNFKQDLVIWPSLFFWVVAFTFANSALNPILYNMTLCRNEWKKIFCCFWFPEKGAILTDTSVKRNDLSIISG
# [21] = biological target: T1, Free fatty acid receptor 1; experiment: Agonist activity at GPR40 (unknown origin) expressed in CHO cells co-expressing luc2P/SRE assessed as firefly luciferase activity at 10 uM incubated for 24 hrs hrs by Bright-Glo based serum response element (SRE) luciferase reporter assay relative to TAK875; type: functional, cell-based; conditions: filed as positive allosteric modulator
# [22] = biological target: T3, Free fatty acid receptor 3 (Homo sapiens, UniProt O14843); experiment: Agonist activity at FFAR3 (unknown origin); type: functional
# T3 sequence (O14843 whole entry): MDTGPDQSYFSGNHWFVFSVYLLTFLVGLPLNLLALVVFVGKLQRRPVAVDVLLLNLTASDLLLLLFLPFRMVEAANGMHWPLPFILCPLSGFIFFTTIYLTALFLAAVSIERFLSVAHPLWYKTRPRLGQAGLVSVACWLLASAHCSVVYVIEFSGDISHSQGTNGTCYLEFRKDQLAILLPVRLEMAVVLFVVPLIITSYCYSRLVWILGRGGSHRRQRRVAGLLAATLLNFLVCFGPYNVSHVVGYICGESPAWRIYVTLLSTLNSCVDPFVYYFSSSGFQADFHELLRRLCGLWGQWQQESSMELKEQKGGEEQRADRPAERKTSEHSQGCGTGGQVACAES
# [23] = biological target: T1, Free fatty acid receptor 1; experiment: Agonist activity at GPR40 (unknown origin) expressed in CHO cells co-expressing luc2P/SRE assessed as induction of TAK875-induced firefly luciferase activity incubated for 24 hrs by Bright-Glo based serum response element (SRE) luciferase reporter assay; type: functional, cell-based; conditions: filed as positive allosteric modulator
# [24] = Tlast in CD-1 mouse at 90 mg/kg, po measured up to 8 hrs by LC-MS/MS analysis; type: ADME, organism-based; conditions: in vivo
# [25] = tested on: MIN6; experiment: Effect on BSA-PA conjugate-induced lipo-toxicity in mouse MIN6 cells assessed as caspase 3/7 activity at 50 uM incubated for 72 hrs by fluorescence assay; type: functional, cell-based
# [26] = Clast in CD-1 mouse at 30 mg/kg, po measured up to 8 hrs by LC-MS/MS analysis; type: ADME, organism-based; conditions: in vivo, read-out: Clast
# [27] = Cmax in CD-1 mouse at 90 mg/kg, po measured up to 8 hrs by LC-MS/MS analysis; type: ADME, organism-based; design: route oral, dose 90 mg/kg, time <=8; conditions: in vivo
# [28] = biological target: T1, Free fatty acid receptor 1; experiment: Agonist activity at GPR40 (unknown origin) expressed in CHO cells co-expressing luc2P/SRE assessed as induction of DHA-induced firefly luciferase activity incubated for 24 hrs by Bright-Glo based serum response element (SRE) luciferase reporter assay; type: functional, cell-based; conditions: filed as positive allosteric modulator
Structure (SMILES),Activity [1],MRT last at 8 h [2] [h],AUC(0-t) at 8 h [3] [ng·h/mL],Activity [4],AUC(0-t) at 8 h [5] [ng·h/mL],concentration at 8 h [6] [ng/mL],concentration at 8 h [7] [ng/mL],Cmax [8] [ng/mL],half-life [9] [h],microsomal CLint [10] [µL/min/mg],AUC(0-t) at 8 h [11] [ng·h/mL],Activity [12],MRT last at 8 h [13] [h],solubility [14],Activity [15],Tlast [16] [h],Tmax [17] [h],Activity [18] [%],Cmax [19] [ng/mL],EC50 [20] [µM],also measured
Cc1ccc(C)c(-c2cc3cc(CCC(=O)O)ccc3[nH]2)c1,inactive,1.24,114000,Active,186000,2680,1250,24000,2.4,10.5,33600,Active,2.31,Soluble,Non-Toxic,8,0.33,14.4,52900,14.8,Emax [21]: 103%; EC50 [22]: > 25 µM; Activity [23]: Active; Tlast [24]: 8 h; Activity [25]: inactive; concentration at 8 h [26]: 62 ng/mL; Cmax [27]: 65000 ng/mL; Activity [28]: Active
Cc1cc(F)ccc1-c1cc2cc(CCC(=O)O)ccc2[nH]1,inactive,1.34,4860,Active,9620,63,11,28700,1.3,≤ 4,38700,Active,1.14,Soluble,Non-Toxic,8,0.55,22.9,3740,> 25,Emax [21]: 111%; EC50 [22]: > 25 µM; Activity [23]: Active; Tlast [24]: 8 h; Activity [25]: inactive; concentration at 8 h [26]: 189 ng/mL; Cmax [27]: 10300 ng/mL; Activity [28]: Active
